Results from patent US20240246946A1, “MODULATORS OF TREX1” (Constellation Pharmaceuticals, Inc., priority 2021, published 2024).

Tests used:
[1] = biological target: T1, full length mouse TREX1 (Mus musculus, UniProt Q91XB0); experiment: mTREX1 Biochemical Assay (fluorescence, dsDNA substrate degradation); settings: biochemical, read-out: mTREX1 IC50
T1 construct: N-terminally His-Tev tagged full length mouse TREX1; made in house; host or cells: E. coli
T1 sequence (Q91XB0 1-314): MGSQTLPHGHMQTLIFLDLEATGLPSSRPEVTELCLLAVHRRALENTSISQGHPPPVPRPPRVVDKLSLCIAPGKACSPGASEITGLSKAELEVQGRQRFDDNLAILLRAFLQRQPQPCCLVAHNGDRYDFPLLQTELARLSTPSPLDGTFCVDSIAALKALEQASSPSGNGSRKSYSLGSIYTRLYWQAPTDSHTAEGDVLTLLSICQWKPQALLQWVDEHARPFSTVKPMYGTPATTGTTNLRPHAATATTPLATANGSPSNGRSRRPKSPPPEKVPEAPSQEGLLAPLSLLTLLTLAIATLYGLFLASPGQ
In short: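 Reaction run 18 h at 25° C. with 60 nM TEX615/quencher-labelled dsDNA and 6 pM mouse TREX1 in Tris buffer (pH 7.4, 5 mM MgCl2, 1.0% DMSO), enzyme having sat 4 h with compound across 10 concentrations. EDTA quench; substrate degradation measured as fluorescence increase.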

[2] = biological target: T2, human TREX2 (residues M44-A279) (Homo sapiens, UniProt Q9BQ50); experiment: hTREX2 Biochemical Assay (fluorescence, dsDNA substrate degradation); settings: biochemical selectivity for hTREX1 vs hTREX2
T2 construct: human TREX2 (residues M44-A279, expressed in E. coli); made in house; host or cells: E. coli
T2 sequence (Q9BQ50 44-279 isoform Q9BQ50-1): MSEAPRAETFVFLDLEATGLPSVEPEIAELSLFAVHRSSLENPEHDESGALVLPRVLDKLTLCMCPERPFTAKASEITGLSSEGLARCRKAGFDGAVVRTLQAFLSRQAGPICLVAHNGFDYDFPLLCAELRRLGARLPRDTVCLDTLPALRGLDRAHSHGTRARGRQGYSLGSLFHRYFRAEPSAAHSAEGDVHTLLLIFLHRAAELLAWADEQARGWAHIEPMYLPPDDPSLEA
In short: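 N-His-Tev E. coli enzyme (50 pM) pre-incubated with compound 4 h at 25 °C, then 60 nM TEX615/quencher dsDNA added; 18 h at 25 °C, pH 7.4 Tris buffer with 5 mM MgCl2, 1.0% DMSO. EDTA-quenched; fluorescence 570 ex/615 em from liberated fluorophore, 10-point dose-response.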

[3] = biological target: T3, full length human TREX1 (Homo sapiens, UniProt Q9NSU2); experiment: hTREX1 Biochemical Assay (fluorescence, dsDNA substrate degradation); settings: biochemical, read-out: hTREX1 IC50
T3 construct: N-terminally His-Tev tagged full length human TREX1; made in house; host or cells: E. coli
T3 sequence (Q9NSU2 1-314): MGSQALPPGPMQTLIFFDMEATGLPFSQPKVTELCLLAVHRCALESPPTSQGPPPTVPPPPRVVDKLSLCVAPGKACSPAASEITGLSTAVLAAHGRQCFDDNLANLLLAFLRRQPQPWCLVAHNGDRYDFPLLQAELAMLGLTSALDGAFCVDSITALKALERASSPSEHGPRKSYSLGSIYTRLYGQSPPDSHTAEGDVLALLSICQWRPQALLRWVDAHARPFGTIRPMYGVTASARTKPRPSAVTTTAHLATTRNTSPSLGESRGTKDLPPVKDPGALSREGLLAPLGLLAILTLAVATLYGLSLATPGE
In short: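 Cleavage of 60 nM TEX615/quencher-labelled dsDNA in pH 7.4 Tris buffer with 5 mM MgCl2, 1.0% DMSO, run 18 hours at 25° C, EDTA-quenched; fluorescence read-out.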

Row | SMILES | IC50 [1] [nM] | hTREX1 vs hTREX2 selectivity [2] | IC50 [3] [nM]
1 | Cc1cnc(C)c(C(c2ccccc2Cl)C(C)c2nc(C(=O)Nc3cnoc3)c(O)c(=O)n2C)n1 (single isomer, unassigned) [Example 120 D1E2] | > 10 | A (A = <25 fold selective for hTREX1) | > 10
2 | Cc1cnc(C)c(C(c2cc(F)ccc2Cl)C(C)c2nc(C(=O)Nc3cnoc3)c(O)c(=O)n2C)n1 (single isomer, unassigned) [Example 121 D1E2] | > 10 | A (A = <25 fold selective for hTREX1) | > 10
3 | Cc1nc(C)c(C(c2ccccc2C#N)C(C)c2nc(C(=O)Nc3cnoc3)c(O)c(=O)n2C)nc1C (single isomer, unassigned) [Example 122 D1E2] | > 10 | B (B = 25 to 50-fold selective for hTREX1) | > 10
4 | Cc1cnc(C(c2ccccc2C#N)C(C)c2nc(C(=O)Nc3cnoc3)c(O)c(=O)n2C)c(C)n1 (single isomer, unassigned) [Example 123 D1E2] | > 10 | A (A = <25 fold selective for hTREX1) | > 10
5 | Cc1cnc(C(c2ccccc2C#N)C(C)c2nc(C(=O)Nc3cnoc3)c(O)c(=O)n2C)c(C)n1 (single isomer, unassigned) [Example 123 D2E1] | > 10 | C (C = >50 fold selective for hTREX1) | 1 to 10
6 | Cc1cnc(C(c2ccccc2C#N)C(C)c2nc(C(=O)Nc3cnoc3)c(O)c(=O)n2C)c(C)n1 (single isomer, unassigned) [Example 123 D2E2] | > 10 | A (A = <25 fold selective for hTREX1) | > 10
7 | Cc1ncc(C(c2cc(F)ccc2C#N)C(C)c2nc(C(=O)Nc3cnoc3)c(O)c(=O)n2C)nc1C (single isomer, unassigned) [Example 124 D1E1] | > 10 | A (A = <25 fold selective for hTREX1) | > 10
8 | Cc1ncc(C(c2cc(F)ccc2C#N)C(C)c2nc(C(=O)Nc3cnoc3)c(O)c(=O)n2C)nc1C (single isomer, unassigned) [Example 124 D2E1] | > 10 | A (A = <25 fold selective for hTREX1) | > 10
9 | Cc1ncc(C(c2cc(F)ccc2C#N)C(C)c2nc(C(=O)Nc3cnoc3)c(O)c(=O)n2C)nc1C (single isomer, unassigned) [Example 124 D2E2] | > 10 | A (A = <25 fold selective for hTREX1) | > 10
10 | Cc1ncc(C(c2ccccc2Cl)C(C)c2nc(C(=O)Nc3cnoc3)c(O)c(=O)n2C)nc1C (single isomer, unassigned) [Example 125 D1E1] | > 10 | A (A = <25 fold selective for hTREX1) | > 10
11 | CC(c1nc(C(=O)Nc2cnoc2)c(O)c(=O)n1C)C(c1ccccc1Cl)c1cn(C)nc1F (single isomer, unassigned) [Example 130 D1E2] | > 10 | A (A = <25 fold selective for hTREX1) | > 10
12 | CC(c1nc(C(=O)Nc2cnoc2)c(O)c(=O)n1C)C(c1ccccc1C#N)c1nnnn1C (single isomer, unassigned) [Example 131 D1E1] | > 10 | A (A = <25 fold selective for hTREX1) | > 10
13 | CC(c1nc(C(=O)Nc2cnoc2)c(O)c(=O)n1C)C(c1ccccc1C#N)c1nnnn1C (single isomer, unassigned) [Example 131 D2E1] | > 10 | C (C = >50 fold selective for hTREX1) | > 10
14 | Cc1ccn(C(c2ccccc2C#N)C(C)c2nc(C(=O)Nc3cnoc3)c(O)c(=O)n2C)n1 (single isomer, unassigned) [Example 132 D1E1] | > 10 | A (A = <25 fold selective for hTREX1) | > 10
15 | Cc1cnn(C(c2ccccc2Cl)C(C)c2nc(C(=O)Nc3cnoc3)c(O)c(=O)n2C)c1 (single isomer, unassigned) [Example 133 D1E1] | > 10 | A (A = <25 fold selective for hTREX1) | > 10

Second part, the compound after the results:

Row | IC50 [1] [nM] | hTREX1 vs hTREX2 selectivity [2] | IC50 [3] [nM] | SMILES
16 | > 10 | A (A = <25 fold selective for hTREX1) | > 10 | Cc1nn(C)c(C)c1C(c1cc(F)ccc1C#N)C(C)c1nc(C(=O)Nc2cnoc2)c(O)c(=O)n1C (single isomer, unassigned) [Example 109 D1E2]
17 | > 10 | A (A = <25 fold selective for hTREX1) | > 10 | COCCn1nc(C)c(C(c2cc(F)ccc2C#N)C(C)c2nc(C(=O)Nc3cnoc3)c(O)c(=O)n2C)c1C (single isomer, unassigned) [Example 110 D1E2]
18 | > 10 | A (A = <25 fold selective for hTREX1) | > 10 | Cc1cc(C(c2cc(F)ccc2C#N)C(C)c2nc(C(=O)Nc3cnoc3)c(O)c(=O)n2C)n(C)n1 (single isomer, unassigned) [Example 111 D2E2]
19 | > 10 | A (A = <25 fold selective for hTREX1) | > 10 | Cc1cc(C(c2cc(F)ccc2C#N)C(C)c2nc(C(=O)Nc3cnoc3)c(O)c(=O)n2C)nn1C (single isomer, unassigned) [Example 112 D1E2]
20 | > 10 | A (A = <25 fold selective for hTREX1) | > 10 | Cc1cc(C(c2cc(F)ccc2C#N)C(C)c2nc(C(=O)Nc3cnoc3)c(O)c(=O)n2C)nn1C (single isomer, unassigned) [Example 112 D2E2]
21 | > 10 | A (A = <25 fold selective for hTREX1) | > 10 | Cc1cc(C(c2cc(F)ccc2Cl)C(C)c2nc(C(=O)Nc3cnoc3)c(O)c(=O)n2C)n(C)n1 (single isomer, unassigned) [Example 113 D1E2]
22 | > 10 | A (A = <25 fold selective for hTREX1) | > 10 | Cc1cc(C(c2cc(F)ccc2Cl)C(C)c2nc(C(=O)Nc3cnoc3)c(O)c(=O)n2C)n(C)n1 (single isomer, unassigned) [Example 113 D2E1]
23 | > 10 | A (A = <25 fold selective for hTREX1) | > 10 | Cc1cnc(C(c2cc(F)ccc2C#N)C(C)c2nc(C(=O)Nc3cnoc3)c(O)c(=O)n2C)cn1 (single isomer, unassigned) [Example 115 D1E1]
24 | > 10 | A (A = <25 fold selective for hTREX1) | > 10 | Cc1cnc(C(c2cc(F)ccc2Cl)C(C)c2nc(C(=O)Nc3cnoc3)c(O)c(=O)n2C)cn1 (single isomer, unassigned) [Example 117 D1E1]
25 | > 10 | A (A = <25 fold selective for hTREX1) | > 10 | Cc1cnc(C(c2cc(F)ccc2Cl)C(C)c2nc(C(=O)Nc3cnoc3)c(O)c(=O)n2C)cn1 (single isomer, unassigned) [Example 117 D2E2]
26 | > 10 | A (A = <25 fold selective for hTREX1) | > 10 | CC(c1nc(C(=O)Nc2cnoc2)c(O)c(=O)n1C)C(c1cnc(C(F)(F)F)cn1)c1ccccc1C#N (single isomer, unassigned) [Example 118 D1E2]
27 | > 10 | A (A = <25 fold selective for hTREX1) | > 10 | CC(c1nc(C(=O)Nc2cnoc2)c(O)c(=O)n1C)C(c1cnc(C(F)(F)F)cn1)c1ccccc1C#N (single isomer, unassigned) [Example 118 D2E2]
28 | 1 to 10 | C (C = >50 fold selective for hTREX1) | < 1 | Cc1cnc(C)c(C(c2cc(F)ccc2C#N)C(C)c2nc(C(=O)Nc3cnoc3)c(O)c(=O)n2C)n1 (single isomer, unassigned) [Example 119 DIE1]
